The target of one assay is T1, human σ2/TMEM97 receptor (Homo sapiens, UniProt Q5BJF2).
T1 construct: expressed in transfected cells; host or cells: HEK-293
Briefly: Binding assay to human σ2/TMEM97 receptor ([3H]-DTG, transfected HEK-293 membranes). Conditions: class scale, read-out: Binding σ-2 Ki. Here is the method: Transfected HEK-293 membranes (15 μg) were incubated with 10 nM [^3H]-1,3-Di-o-tolylguanidine (DTG) in assay buffer containing Tris-HCl 50 mM at pH 8.0. NSB (non-specific binding) was measured by adding 10 μM haloperidol. The binding of the test compound was measured at either one concentration (% inhibition at 1 or 10 μM) or five different concentrations to determine affinity values (Ki). Plates were incubated at 25° C. for 120 minutes. After the incubation period, the reaction mix was transferred to MultiScreen HTS, FC plates (Millipore), filtered and washed 3 times with ice-cold 10 mM Tris-HCL (pH 8.0). Filters were dried and counted at approximately 40% efficiency in a MicroBeta scintillation counter (Perkin-Elmer) using EcoScint liquid scintillation cocktail.

The target in a further assay is T2, human σ1 receptor (Homo sapiens, UniProt Q99720).
T2 construct: expressed in transfected cells; host or cells: HEK-293
T2 sequence (Q99720 whole entry): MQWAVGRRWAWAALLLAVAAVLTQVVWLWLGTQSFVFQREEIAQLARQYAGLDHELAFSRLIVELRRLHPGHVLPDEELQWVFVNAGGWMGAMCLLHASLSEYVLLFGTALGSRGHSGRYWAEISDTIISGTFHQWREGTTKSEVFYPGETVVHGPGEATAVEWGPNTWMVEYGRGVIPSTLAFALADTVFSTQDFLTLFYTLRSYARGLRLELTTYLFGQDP
Briefly: Human σ1 receptor radioligand assay ([3H](+)-pentazocine, transfected HEK-293 membranes). Conditions: class scale, read-out: Binding σ-1 Ki. Here is the method:
Transfected HEK-293 membranes (7 μg) were incubated with 5 nM of [^3H](+)-pentazocine in assay buffer containing Tris-HCl 50 mM at pH 8. NBS (non-specific binding) was measured by adding 10 μM haloperidol. The binding of the test compound was measured at either one concentration (% inhibition at 1 or 10 μM) or five different concentrations to determine affinity values (Ki). Plates were incubated at 37° C. for 120 minutes. After the incubation period, the reaction mix was then transferred to MultiScreen HTS, FC plates (Millipore), filtered and plates were washed 3 times with ice-cold 10 mM Tris-HCL (pH7.4). Filters were dried and counted at approximately 40% efficiency in a MicroBeta scintillation counter (Perkin-Elmer) using EcoScint liquid scintillation cocktail.

Structures are written as SMILES.

T1 sequence (Q5BJF2 whole entry): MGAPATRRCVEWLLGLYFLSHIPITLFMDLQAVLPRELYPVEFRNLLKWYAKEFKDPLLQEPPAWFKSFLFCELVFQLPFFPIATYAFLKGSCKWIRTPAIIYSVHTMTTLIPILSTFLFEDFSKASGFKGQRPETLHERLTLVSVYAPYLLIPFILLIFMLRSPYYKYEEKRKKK

For `Cc1cc(-c2nn(C)c(Cl)c2CN2CCC(CNCc3ccccc3)CC2)no1` [Example 56, N-Benzyl-1-(1-((5-chloro-1-methyl-3-(5-methylisoxazol-3-yl)-1H-pyrazol-4-yl)methyl)piperidin-4-yl)methanamine], the Ki on human σ2/TMEM97 receptor and at human σ1 receptor was 100 to 500 nM throughout.

As to `Cc1cc(-c2nn(C)c(Cl)c2CN2CCCC(CNCCc3ccccc3)C2)no1` (stereo not drawn) [Example 57, N-((1-((5-Chloro-1-methyl-3-(5-methylisoxazol-3-yl)-1H-pyrazol-4-yl)methyl)piperidin-3-yl)methyl)-2-phenylethanamine], the Ki (in general, the dissociation constant of the complex between target and ligand, obtained from inhibition or displacement) was in the range of 100 to 500 nM at human σ2/TMEM97 receptor and 500 to 1000 nM on human σ1 receptor.

Consider `Cc1cc(-c2nn(C)c(Cl)c2CN2CCCC(CNCCC(C)C)C2)no1` (stereo not drawn) [Example 58, N-((1-((5-Chloro-1-methyl-3-(5-methylisoxazol-3-yl)-1H-pyrazol-4-yl)methyl)piperidin-3-yl)methyl)-3-methylbutan-1-amine], for which the inhibitory constant (Ki) on human σ2/TMEM97 receptor is less than 100 nM; on human σ1 receptor it was 100 to 500 nM.

Turning to `Cc1cc(-c2nn(C)c(Cl)c2CN2CCCCC(CNCCC(C)C)C2)no1` (stereo not drawn) [Example 59, N-((1-((5-Chloro-1-methyl-3-(5-methylisoxazol-3-yl)-1H-pyrazol-4-yl)methyl)azepan-3-yl)methyl)-3-methylbutan-1-amine], the values for the Ki on human σ2/TMEM97 receptor and on human σ1 receptor were 100 to 500 nM and 500 to 1000 nM, respectively.

In the case of `Cc1cc(-c2nn(C)c(Cl)c2CN2CCC3(C2)CN(Cc2ccccc2)C3)no1` [Example 60, 3-(4-((2-Benzyl-2,6-diazaspiro[3.4]octan-6-yl)methyl)-5-chloro-1-methyl-1H-pyrazol-3-yl)-5-methylisoxazole], the Ki on human σ2/TMEM97 receptor was 100 to 500 nM; on human σ1 receptor, less than 100 nM.

With `Cc1cc(-c2nn(C)c(Cl)c2CN2CCC3(C2)CN(CCc2ccccc2)C3)no1` [Example 61, 3-(5-Chloro-1-methyl-4-((2-phenethyl-2,6-diazaspiro[3.4]octan-6-yl)methyl)-1H-pyrazol-3-yl)-5-methylisoxazole], the Ki at human σ2/TMEM97 receptor is less than 100 nM; on human σ1 receptor, 100 to 500 nM.

Turning to `Cc1cc(-c2nn(C)c(Cl)c2CN2CCC(C3(NCCC(C)C)CC3)C2)no1` (stereo not drawn) [Example 62, 1-(1-((5-Chloro-1-methyl-3-(5-methylisoxazol-3-yl)-1H-pyrazol-4-yl)methyl)pyrrolidin-3-yl)-N-isopentylcyclopropanamine], the Ki at human σ2/TMEM97 receptor fell in the range of 100 to 500 nM; at human σ1 receptor it was 500 to 1000 nM.

On to `Cc1cc(-c2nn(C)c(Cl)c2CN2CCCC(C3(NCCC(C)C)CC3)C2)no1` (stereo not drawn) [Example 63, 1-(1-((5-Chloro-1-methyl-3-(5-methylisoxazol-3-yl)-1H-pyrazol-4-yl)methyl)piperidin-3-yl)-N-isopentylcyclopropanamine], for which the Ki on human σ2/TMEM97 receptor is 100 to 500 nM; at human σ1 receptor, less than 100 nM.

As for `Cc1cc(-c2nn(C)c(Cl)c2CN2CCCOC(CNCCC(C)C)C2)no1` (stereo not drawn) [Example 64, N-((4-((5-Chloro-1-methyl-3-(5-methylisoxazol-3-yl)-1H-pyrazol-4-yl)methyl)-1,4-oxazepan-2-yl)methyl)-3-methylbutan-1-amine], the Ki at human σ2/TMEM97 receptor and on human σ1 receptor was 100 to 500 nM each time.

For the compound `Cc1cc(-c2nn(C)c(Cl)c2CN2CCC3(CC2)CCN(C(C)c2ccccc2)CC3)no1` (stereo not drawn) [Example 65, 3-(5-Chloro-1-methyl-4-((9-(1-phenylethyl)-3,9-diazaspiro[5.5]undecan-3-yl)methyl)-1H-pyrazol-3-yl)-5-methylisoxazole], the inhibition constant Ki at human σ2/TMEM97 receptor and on human σ1 receptor was 100 to 500 nM throughout.

Consider `Cc1cc(-c2nn(C)c(Cl)c2CN2CCC3(CCN(Cc4ccccc4)CC3)CC2)no1` [Example 66, 3-(4-((9-Benzyl-3,9-diazaspiro[5.5]undecan-3-yl)methyl)-5-chloro-1-methyl-1H-pyrazol-3-yl)-5-methylisoxazole], for which the Ki on human σ2/TMEM97 receptor and at human σ1 receptor was less than 100 nM in each case.

With `Cc1cc(-c2nn(C)c(Cl)c2CN2CCC3(CCN(CCC(C)C)CC3)CC2)no1` [Example 67, 3-(5-Chloro-4-((9-isopentyl-3,9-diazaspiro[5.5]undecan-3-yl)methyl)-1-methyl-1H-pyrazol-3-yl)-5-methylisoxazole], the Ki is less than 100 nM at human σ2/TMEM97 receptor and 500 to 1000 nM at human σ1 receptor.

With `Cc1cc(-c2nn(C)c(Cl)c2CN2CCC3(CC2)CCN(CC(C)(C)C)CC3)no1` [Example 68, 3-(5-Chloro-1-methyl-4-((9-neopentyl-3,9-diazaspiro[5.5]undecan-3-yl)methyl)-1H-pyrazol-3-yl)-5-methylisoxazole], the Ki at human σ2/TMEM97 receptor was less than 100 nM; at human σ1 receptor, 100 to 500 nM.

On to `Cc1cc(-c2nn(C)c(Cl)c2CN2CC[C@]3(CCN(CCC(C)(C)C)C3)C2)no1` [Example 69, (S)-3-(5-Chloro-4-((7-(3,3-dimethylbutyl)-2,7-diazaspiro[4.4]nonan-2-yl)methyl)-1-methyl-1H-pyrazol-3-yl)-5-methylisoxazole], for which the Ki on human σ2/TMEM97 receptor and on human σ1 receptor was less than 100 nM in each case.

`Cc1cc(-c2nn(C)c(Cl)c2CN2CC[C@@]3(CCN(CCC(C)(C)C)C3)C2)no1` [Example 70, (R)-3-(5-chloro-4-((7-(3,3-dimethylbutyl)-2,7-diazaspiro[4.4]nonan-2-yl)methyl)-1-methyl-1H-pyrazol-3-yl)-5-methylisoxazole]: the Ki at human σ2/TMEM97 receptor and on human σ1 receptor was less than 100 nM throughout.

For `Cc1cc(-c2nn(C)c(Cl)c2CN2CC[C@H](CNCCc3ccccc3)C2)no1` [Example 71, (R)-N-((1-((5-Chloro-1-methyl-3-(5-methylisoxazol-3-yl)-1H-pyrazol-4-yl)methyl)pyrrolidin-3-yl)methyl)-2-phenylethanamine], the Ki on human σ2/TMEM97 receptor was 100 to 500 nM; on human σ1 receptor, more than 1000 nM.

Take `Cc1cc(-c2nn(C)c(Cl)c2CN2CC[C@@H](CNCCc3ccccc3)C2)no1` [Example 72, (S)-N-((1-((5-chloro-1-methyl-3-(5-methylisoxazol-3-yl)-1H-pyrazol-4-yl)methyl)pyrrolidin-3-yl)methyl)-2-phenylethanamine]: the results for the inhibition constant (Ki) on human σ2/TMEM97 receptor and at human σ1 receptor were 100 to 500 nM and 500 to 1000 nM, respectively.

Consider `Cc1cc(-c2nn(C)c(Cl)c2CN2CC[C@@H](CNCCC(C)(C)C)C2)no1` [Example 73, (S)-N-((1-((5-Chloro-1-methyl-3-(5-methylisoxazol-3-yl)-1H-pyrazol-4-yl)methyl)pyrrolidin-3-yl)methyl)-3,3-dimethylbutan-1-amine], for which the Ki was less than 100 nM at human σ2/TMEM97 receptor and 100 to 500 nM at human σ1 receptor.

Regarding `Cc1cc(-c2nn(C)c(Cl)c2CN2CC[C@H](CNCCC(C)(C)C)C2)no1` [Example 74, (R)-N-((1-((5-chloro-1-methyl-3-(5-methylisoxazol-3-yl)-1H-pyrazol-4-yl)methyl)pyrrolidin-3-yl)methyl)-3,3-dimethylbutan-1-amine], the Ki at human σ2/TMEM97 receptor was less than 100 nM; on human σ1 receptor, 100 to 500 nM.

Take `Cc1cc(-c2nn(C)c(Cl)c2CN2CC[C@]3(C2)C[C@H](NCCC(C)(C)C)C3)no1` [Example 75, (2s,4r)-6-((5-Chloro-1-methyl-3-(5-methylisoxazol-3-yl)-1H-pyrazol-4-yl)methyl)-N-(3,3-dimethylbutyl)-6-azaspiro[3.4]octan-2-amine]: the Ki at human σ2/TMEM97 receptor was less than 100 nM; at human σ1 receptor it was 500 to 1000 nM.

As for `Cc1cc(-c2nn(C)c(Cl)c2CN2CC[C@]3(C2)C[C@@H](NCCC(C)(C)C)C3)no1` [Example 76], the Ki on human σ2/TMEM97 receptor and on human σ1 receptor was 100 to 500 nM throughout.

These data come from patent publication US20240239781A1, “1H-PYRAZOLE DERIVATIVES AS SIGMA LIGANDS” (ACONDICIONAMIENTO TARRASENSE, priority 2021, published 2024).
